Assay in all cases: KiNativ, MOLM13 live cells
What all share (type): cell-based

The target of test [1] is T1, ULK1 (Homo sapiens, UniProt O75385).
T1 sequence (O75385 1-1050): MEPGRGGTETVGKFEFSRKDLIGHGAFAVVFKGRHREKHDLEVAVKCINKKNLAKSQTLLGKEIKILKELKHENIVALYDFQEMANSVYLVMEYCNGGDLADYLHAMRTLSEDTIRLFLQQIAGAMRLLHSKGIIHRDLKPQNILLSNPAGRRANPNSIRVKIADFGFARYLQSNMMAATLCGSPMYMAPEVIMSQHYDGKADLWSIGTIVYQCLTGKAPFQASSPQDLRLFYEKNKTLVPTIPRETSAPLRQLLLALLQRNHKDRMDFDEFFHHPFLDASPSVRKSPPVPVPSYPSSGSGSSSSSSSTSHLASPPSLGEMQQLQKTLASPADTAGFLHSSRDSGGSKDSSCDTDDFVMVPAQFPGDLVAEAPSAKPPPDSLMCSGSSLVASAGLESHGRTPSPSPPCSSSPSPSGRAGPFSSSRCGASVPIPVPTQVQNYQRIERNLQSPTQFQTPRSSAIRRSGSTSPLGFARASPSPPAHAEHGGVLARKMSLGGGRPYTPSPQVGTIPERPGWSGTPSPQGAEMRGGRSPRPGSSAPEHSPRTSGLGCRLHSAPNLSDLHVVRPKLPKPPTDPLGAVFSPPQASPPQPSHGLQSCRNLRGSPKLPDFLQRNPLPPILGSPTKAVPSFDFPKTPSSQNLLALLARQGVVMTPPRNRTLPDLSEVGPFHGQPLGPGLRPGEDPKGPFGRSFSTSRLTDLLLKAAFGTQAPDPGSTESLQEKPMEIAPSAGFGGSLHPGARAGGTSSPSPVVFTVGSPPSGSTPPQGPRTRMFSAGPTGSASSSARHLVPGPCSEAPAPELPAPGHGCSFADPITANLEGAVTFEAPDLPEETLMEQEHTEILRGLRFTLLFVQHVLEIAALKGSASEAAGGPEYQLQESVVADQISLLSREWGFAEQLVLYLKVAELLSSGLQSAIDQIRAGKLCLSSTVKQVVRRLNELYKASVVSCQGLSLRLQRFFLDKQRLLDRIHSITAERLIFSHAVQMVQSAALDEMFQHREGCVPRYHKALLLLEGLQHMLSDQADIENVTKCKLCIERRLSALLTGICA
To be noted: 100 nM, 2 hours; Lys2. How it is done:
(§1) Samples were analyzed by KiNativ in situ kinase profiling by ActivX Biosciences.

For test [2], the target named is PKN1 (Homo sapiens, UniProt Q16512). Particulars: MOLM-13; 100 nM, 2 hours; Lys2; read-out: Inhibition vs DMSO. The procedure: as §1
The target of test [3] is T2, LATS2 (Homo sapiens, UniProt Q9NRM7).
T2 sequence (Q9NRM7 1-1088): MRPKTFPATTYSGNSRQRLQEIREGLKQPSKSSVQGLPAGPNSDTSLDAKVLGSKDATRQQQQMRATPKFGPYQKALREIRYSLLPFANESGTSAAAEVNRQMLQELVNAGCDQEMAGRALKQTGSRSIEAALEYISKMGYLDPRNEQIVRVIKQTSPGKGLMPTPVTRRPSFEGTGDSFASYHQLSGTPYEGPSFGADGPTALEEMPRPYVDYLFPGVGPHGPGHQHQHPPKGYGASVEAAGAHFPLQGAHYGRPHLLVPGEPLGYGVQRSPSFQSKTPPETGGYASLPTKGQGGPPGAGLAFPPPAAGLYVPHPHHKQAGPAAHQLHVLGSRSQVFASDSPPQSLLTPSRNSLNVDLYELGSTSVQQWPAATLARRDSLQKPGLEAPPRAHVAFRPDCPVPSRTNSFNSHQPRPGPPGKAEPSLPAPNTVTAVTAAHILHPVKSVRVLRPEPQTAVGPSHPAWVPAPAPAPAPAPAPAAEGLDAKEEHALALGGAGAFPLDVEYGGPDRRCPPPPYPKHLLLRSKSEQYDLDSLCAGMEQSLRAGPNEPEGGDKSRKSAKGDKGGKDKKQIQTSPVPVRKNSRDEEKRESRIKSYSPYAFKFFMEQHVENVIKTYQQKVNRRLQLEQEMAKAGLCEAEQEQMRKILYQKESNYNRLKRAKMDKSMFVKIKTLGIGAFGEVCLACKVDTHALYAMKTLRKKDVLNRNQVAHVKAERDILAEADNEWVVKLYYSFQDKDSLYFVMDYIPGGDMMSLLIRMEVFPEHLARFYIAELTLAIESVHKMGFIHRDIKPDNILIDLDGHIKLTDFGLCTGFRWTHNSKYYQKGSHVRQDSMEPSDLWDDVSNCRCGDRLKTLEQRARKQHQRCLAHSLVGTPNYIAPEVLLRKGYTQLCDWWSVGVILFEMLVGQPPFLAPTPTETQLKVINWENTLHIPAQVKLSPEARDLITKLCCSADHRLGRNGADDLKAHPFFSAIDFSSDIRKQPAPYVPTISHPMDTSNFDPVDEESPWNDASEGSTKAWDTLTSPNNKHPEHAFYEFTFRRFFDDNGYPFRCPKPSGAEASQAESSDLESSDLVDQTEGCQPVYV
Particulars: 100 nM, 2 hours. How it is done:
as §1

In test [4] the target is RAF1 (Homo sapiens, UniProt P04049). To be noted: MOLM-13; 100 nM, 2 hours; Lys2; read-out: Inhibition vs DMSO. How it is done: as §1
RAF1, sequence (P04049 whole entry): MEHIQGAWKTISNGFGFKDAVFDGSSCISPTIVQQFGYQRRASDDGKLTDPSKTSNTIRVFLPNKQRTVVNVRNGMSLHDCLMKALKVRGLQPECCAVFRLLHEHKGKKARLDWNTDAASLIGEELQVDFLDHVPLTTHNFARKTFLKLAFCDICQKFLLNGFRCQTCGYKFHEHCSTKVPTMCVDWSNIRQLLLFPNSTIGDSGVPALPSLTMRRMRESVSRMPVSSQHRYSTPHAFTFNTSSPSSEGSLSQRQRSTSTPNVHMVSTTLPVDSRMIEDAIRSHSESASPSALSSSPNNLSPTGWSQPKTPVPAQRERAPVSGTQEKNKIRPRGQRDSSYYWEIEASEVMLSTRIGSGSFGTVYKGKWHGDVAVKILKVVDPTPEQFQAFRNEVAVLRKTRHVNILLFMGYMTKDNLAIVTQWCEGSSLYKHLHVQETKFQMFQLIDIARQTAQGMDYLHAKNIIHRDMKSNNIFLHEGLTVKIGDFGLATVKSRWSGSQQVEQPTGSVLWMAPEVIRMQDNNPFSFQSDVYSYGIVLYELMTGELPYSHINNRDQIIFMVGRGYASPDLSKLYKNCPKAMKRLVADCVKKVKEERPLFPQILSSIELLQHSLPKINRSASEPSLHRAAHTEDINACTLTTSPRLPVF
The target in test [5] is MST3 (Homo sapiens, UniProt Q9Y6E0). To be noted: 100 nM, 2 hours; Lys2. How it is done:
as §1

Test [6] deals with MAP4K3 (Homo sapiens, UniProt Q8IVH8). Particulars: 100 nM, 2 hours; Lys2. How it is done: as §1
MAP4K3, sequence (Q8IVH8 whole entry): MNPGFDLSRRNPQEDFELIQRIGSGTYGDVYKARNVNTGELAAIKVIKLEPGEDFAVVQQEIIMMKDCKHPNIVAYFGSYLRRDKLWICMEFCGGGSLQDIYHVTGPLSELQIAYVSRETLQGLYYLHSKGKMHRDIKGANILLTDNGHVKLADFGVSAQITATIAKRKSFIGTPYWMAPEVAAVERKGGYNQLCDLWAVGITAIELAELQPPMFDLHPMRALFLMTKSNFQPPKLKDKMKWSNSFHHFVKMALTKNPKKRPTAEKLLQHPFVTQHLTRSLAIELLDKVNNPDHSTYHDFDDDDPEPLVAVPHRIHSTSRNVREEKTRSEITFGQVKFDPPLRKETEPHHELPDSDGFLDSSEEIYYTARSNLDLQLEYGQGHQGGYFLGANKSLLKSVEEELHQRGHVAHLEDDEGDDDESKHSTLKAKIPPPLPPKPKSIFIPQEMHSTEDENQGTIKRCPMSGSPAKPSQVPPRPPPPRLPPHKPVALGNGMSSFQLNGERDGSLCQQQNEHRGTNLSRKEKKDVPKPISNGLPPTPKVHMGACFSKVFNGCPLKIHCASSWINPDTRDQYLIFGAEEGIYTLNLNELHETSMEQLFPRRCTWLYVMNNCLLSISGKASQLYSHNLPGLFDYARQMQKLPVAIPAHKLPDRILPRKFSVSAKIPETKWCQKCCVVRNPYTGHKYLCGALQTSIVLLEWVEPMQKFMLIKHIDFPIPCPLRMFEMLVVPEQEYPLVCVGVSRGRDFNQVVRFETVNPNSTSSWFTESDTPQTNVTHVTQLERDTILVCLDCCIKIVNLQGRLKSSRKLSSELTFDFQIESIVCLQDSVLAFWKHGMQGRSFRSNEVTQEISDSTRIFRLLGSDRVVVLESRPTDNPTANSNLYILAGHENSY
The target in test [7] is DGKA (Homo sapiens, UniProt P23743). To be noted: MOLM-13; 100 nM, 2 hours; ATP; read-out: Inhibition vs DMSO. How it is done:
as §1

Test [8] deals with CaMKK2 (Homo sapiens, UniProt Q96RR4). To be noted: MOLM-13, 2 h, 100 nM. The procedure: as §1
CaMKK2, sequence (Q96RR4 whole entry, the tested form may be a part): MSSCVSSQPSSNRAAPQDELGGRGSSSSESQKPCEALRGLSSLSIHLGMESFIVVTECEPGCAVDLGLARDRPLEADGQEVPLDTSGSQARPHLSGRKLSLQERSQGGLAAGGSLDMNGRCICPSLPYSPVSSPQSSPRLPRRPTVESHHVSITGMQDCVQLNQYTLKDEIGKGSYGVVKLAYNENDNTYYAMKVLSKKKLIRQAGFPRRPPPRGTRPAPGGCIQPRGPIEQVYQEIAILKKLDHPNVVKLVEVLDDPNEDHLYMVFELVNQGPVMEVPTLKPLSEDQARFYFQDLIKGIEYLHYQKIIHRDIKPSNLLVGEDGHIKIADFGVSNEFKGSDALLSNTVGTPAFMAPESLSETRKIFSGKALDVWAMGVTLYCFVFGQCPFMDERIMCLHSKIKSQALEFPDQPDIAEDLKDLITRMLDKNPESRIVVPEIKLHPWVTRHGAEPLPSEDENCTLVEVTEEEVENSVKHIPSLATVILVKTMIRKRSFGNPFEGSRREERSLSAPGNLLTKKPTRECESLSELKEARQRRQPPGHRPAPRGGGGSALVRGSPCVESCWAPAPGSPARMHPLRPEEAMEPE
Test [9] deals with T3, GCN2 domain2 (Homo sapiens, UniProt Q9P2K8).
T3 construct: GCN2 domain2
T3 sequence (Q9P2K8 whole entry, the tested form may be a part): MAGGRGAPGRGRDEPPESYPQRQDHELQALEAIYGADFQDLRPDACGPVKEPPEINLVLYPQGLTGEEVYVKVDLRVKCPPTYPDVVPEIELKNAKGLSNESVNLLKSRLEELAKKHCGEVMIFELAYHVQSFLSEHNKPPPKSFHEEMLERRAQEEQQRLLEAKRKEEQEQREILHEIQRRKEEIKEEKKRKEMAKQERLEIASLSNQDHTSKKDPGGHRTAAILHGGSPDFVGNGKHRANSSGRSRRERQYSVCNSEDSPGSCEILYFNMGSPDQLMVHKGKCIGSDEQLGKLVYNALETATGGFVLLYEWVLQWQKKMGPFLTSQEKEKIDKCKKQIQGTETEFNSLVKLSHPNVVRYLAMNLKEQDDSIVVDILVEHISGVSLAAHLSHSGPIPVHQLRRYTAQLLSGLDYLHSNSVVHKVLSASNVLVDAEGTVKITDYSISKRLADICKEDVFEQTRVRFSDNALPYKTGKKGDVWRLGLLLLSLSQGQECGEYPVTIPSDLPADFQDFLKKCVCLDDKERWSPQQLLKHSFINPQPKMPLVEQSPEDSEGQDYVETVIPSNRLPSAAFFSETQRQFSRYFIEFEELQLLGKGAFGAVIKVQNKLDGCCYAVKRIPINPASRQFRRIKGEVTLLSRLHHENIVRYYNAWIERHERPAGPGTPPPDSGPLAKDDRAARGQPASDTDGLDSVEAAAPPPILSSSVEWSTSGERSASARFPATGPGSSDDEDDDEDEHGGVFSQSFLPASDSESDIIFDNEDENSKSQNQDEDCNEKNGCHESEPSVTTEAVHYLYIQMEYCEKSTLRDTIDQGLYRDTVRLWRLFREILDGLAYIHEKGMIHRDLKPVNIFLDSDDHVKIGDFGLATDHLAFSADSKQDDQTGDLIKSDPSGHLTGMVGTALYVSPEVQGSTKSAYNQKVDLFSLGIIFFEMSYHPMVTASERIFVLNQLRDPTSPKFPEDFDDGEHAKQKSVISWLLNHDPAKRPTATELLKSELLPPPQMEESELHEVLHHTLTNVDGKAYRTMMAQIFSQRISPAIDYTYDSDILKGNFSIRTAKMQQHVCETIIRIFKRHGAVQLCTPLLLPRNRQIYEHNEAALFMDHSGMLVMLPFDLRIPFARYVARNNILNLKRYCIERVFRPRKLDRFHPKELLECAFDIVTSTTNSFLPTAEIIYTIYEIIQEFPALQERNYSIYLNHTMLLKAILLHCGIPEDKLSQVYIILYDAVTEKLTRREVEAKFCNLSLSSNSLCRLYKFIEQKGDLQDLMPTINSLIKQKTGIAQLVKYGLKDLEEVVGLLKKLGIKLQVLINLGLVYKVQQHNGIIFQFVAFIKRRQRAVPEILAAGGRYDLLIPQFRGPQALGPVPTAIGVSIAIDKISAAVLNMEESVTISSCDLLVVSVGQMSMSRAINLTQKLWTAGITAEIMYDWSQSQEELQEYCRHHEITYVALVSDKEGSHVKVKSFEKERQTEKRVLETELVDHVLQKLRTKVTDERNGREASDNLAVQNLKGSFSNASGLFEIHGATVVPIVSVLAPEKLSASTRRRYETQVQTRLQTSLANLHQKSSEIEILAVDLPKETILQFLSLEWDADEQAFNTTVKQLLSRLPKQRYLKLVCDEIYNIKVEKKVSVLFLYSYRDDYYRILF
To be noted: MOLM-13, 2 h, 100 nM. The procedure:
as §1

The mark [10] stands for this setting: Lys1, read-out: Inhibition vs DMSO.
Setting [11] is: Lys2, read-out: Inhibition vs DMSO.

Read-outs that look alike come from different tables or passages of the source.

MST3, sequence (Q9Y6E0 whole entry): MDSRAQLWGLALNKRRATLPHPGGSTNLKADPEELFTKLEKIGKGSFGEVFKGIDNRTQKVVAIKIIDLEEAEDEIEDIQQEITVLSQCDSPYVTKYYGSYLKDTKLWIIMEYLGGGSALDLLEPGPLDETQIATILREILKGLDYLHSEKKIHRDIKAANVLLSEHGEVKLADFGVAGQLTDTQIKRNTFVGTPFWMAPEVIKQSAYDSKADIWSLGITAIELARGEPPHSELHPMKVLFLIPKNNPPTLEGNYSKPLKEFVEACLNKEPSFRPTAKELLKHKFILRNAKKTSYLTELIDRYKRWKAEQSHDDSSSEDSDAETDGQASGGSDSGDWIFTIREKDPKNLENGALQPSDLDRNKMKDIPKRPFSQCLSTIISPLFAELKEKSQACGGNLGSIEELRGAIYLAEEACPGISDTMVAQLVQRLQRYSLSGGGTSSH
DGKA, sequence (P23743 whole entry): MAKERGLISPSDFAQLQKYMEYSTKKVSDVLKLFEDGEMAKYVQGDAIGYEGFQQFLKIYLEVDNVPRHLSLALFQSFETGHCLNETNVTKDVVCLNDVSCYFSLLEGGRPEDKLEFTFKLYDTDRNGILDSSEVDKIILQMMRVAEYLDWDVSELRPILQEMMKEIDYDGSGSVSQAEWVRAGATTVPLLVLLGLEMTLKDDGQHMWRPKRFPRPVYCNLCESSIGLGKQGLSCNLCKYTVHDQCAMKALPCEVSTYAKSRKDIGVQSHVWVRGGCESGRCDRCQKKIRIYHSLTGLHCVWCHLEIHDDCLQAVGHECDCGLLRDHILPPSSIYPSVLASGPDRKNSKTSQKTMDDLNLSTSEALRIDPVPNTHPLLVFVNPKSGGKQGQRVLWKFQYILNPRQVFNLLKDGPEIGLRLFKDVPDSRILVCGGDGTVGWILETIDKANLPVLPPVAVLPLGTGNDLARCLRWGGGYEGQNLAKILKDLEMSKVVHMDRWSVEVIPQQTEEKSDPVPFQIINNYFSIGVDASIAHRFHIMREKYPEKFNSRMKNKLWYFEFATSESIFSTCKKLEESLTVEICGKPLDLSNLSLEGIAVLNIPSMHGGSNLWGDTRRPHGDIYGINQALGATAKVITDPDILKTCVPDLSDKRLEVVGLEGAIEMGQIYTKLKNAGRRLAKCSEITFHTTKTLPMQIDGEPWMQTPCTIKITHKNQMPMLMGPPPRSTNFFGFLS

As to `CN1CCN(Cc2ccc(Nc3ncc(Cl)c(Nc4ccccc4S(=O)(=O)N(C)C)n3)cc2)CC1` [TP-0903], the “Inhibition vs DMSO” value is given as 45.8% in test [1]; 7.9% in [3] (Lys1); -14.6% in test [3] (Lys2); 55.3% in test [5]; 45.4% in test [6]. For the same compound, the inhibition at 0.1 µM is -25.2% in test [2]; 0.349% in test [4]; -9.4% in test [7]; 40.8% in test [8] (setting [10]); 36.1% in test [8] (setting [11]); -22.2% in test [9] (setting [10]). In addition, in test [9] (setting [11]), the inhibition at 0.1 µM is -33.5%.

The values above are taken from publication PMC7714403 (JCI Insight, 2020).
